Earlier results, collected in PMC6458983 (Cancer Chemotherapy and Pharmacology, 2019).

Settings: cited from earlier work

C#Cc1cccc(Nc2ncnc3cc(OCCOC)c(OCCOC)cc23)c1 [erlotinib]
trough plasma concentration (patient case study, at the time of ILD diagnosis): elevated
median trough concentrations versus patients without ILD (three patients at the time of suspected ILD): approximately three times higher
